# Experimental data taken from US12576156B2, “Compound comprising self-immolative group and ligand-drug conjugate comprising same” (priority 2022, dated 2026).
# Numbered stars: 1 amine (or outer) side, 2 acyl side, 3 side chain; on linkers, the order of the positions; unused ones are H or OH. Square brackets hold non-standard residues; d marks the D form. Peptide text beside a SMILES is read from it. * marks the point of attachment. ξ: configuration not given here. X1 = O=C(O)CCCc1cc2c(O[C@@H]3O[C@H](CO)[C@H](O)[C@H](O)[C@H]3O)ccc(COC(=O)*)c2o1; X3 = O=C(O)c1cc2c(O[C@@H]3O[C@H](CO)[C@H](O)[C@H](O)[C@H]3O)ccc(COC(=O)*)c2[se]1; X2 = O=C(O)CCc1cc2c(O[C@@H]3O[C@H](CO)[C@H](O)[C@H](O)[C@H]3O)ccc(COC(=O)*)c2s1; X4 = O=C(O)c1cc2c(O[C@@H]3O[C@H](CO)[C@H](O)[C@H](O)[C@H]3O)ccc(COC(=O)*)c2o1; Dil(5ξ) = CCC(C)[C@@H]([C@@H](CC(=O)[*:2])OC)N(C)[*:1]; Dolaproine = CO[C@@H]([C@@H]1CCCN1)[C@@H](C)C(=O)O; NMeV = CN[C@H](C(=O)O)C(C)C; ξF = NC(Cc1ccccc1)C(=O)O
# Columns and labels:
# [1] = Chemical stability in PBS buffer solution (pH 7.4); assay type: physicochemical; conditions: 37° C., read-out: Chemical stability t1/2
# Description: The compounds of the present invention (A-15, A-16, A-19, A-21 to A-25, A-28, A-29, A-36 and A-69) were each dissolved in DMSO to a concentration of 10 mM and then mixed with a PBS buffer solution (pH 7.4) to prepare as a solution having a concentration of 500 μM (5% DMSO). MPS, used as a standard material, was also prepared as a solution having a concentration of 500 μM in a PBS buffer solution. 420 μL of a PBS buffer solution and […] of each of 500 μM compounds of the present invention and MPS were mixed to prepare a total of 700 μL of reaction solution. The reaction of the mixed solution was initiated in a constant temperature incubator at 37° C. The reaction solution was aliquoted in an amount of 70 μL at 0 minutes before the reaction and at certain times after the reaction, and the remaining compounds of the present invention or MPS or the liberated MMAF or MMAE were quantitatively analyzed using the HPLC method. […] In addition, the remaining amount of Compound A-69 in a PBS buffer solution (pH 7.4) according to the incubation time is shown in FIG. 5.
# [2] = Mouse plasma stability (Method 1); assay type: in vitro ADME; conditions: Method 1 (mouse plasma), 37° C.; read-out: Plasma stability t1/2
# Description: Method 1: Mouse Plasma Stability
# (§1) The compounds of the present invention (A-16, A-22, A-25, A-36, A-69) and MPS, used as a standard material, were each dissolved in DMSO and a PBS buffer solution to a concentration of 30 mM, and then mixed in mouse plasma (Biochemed, 029-APSC-PMG) to a final concentration of 300 μM (final 1.0% DMSO) and 600 μM of the compounds and MPS, respectively. The reaction of the mixed solution in plasma was initiated in a constant temperature incubator at 37° C. Before the reaction and on certain days after the reaction, the above samples were aliquoted in an amount of 100 μL, and 200 μL of acetonitrile (ACN, Sigma, SA-271004-1L) was added to terminate the reaction, mixed, and then vortexed for about 1 minute, and then centrifuged (Beckman, B30150) at 4° C. for 15 minutes at 14,000 rpm to precipitate plasma proteins. Each supernatant obtained by centrifugation was collected and quantitatively analyzed using the HPLC method.
# (§2) The results of measuring the plasma half-life of the compounds of the present invention using Methods 1 to 4 above are shown in Table 3.
# [3] = Human plasma stability (Method 2); assay type: in vitro ADME; conditions: Method 2 (human plasma), 37° C.; read-out: Plasma stability t1/2
# Description: Method 2: Human Plasma Stability
# as §1, with “(A-19,” for “(A-16,”, “human” for “mouse”, “752PR-SC-PMG)” for “029-APSC-PMG)”, “ACN” for “acetonitrile (ACN, Sigma, SA-271004-1L)”, “centrifuged” for “centrifuged (Beckman, B30150)”
# as §2
# [4] = Rat plasma stability (Method 3); assay type: in vitro ADME; conditions: Method 3 (rat plasma), 37° C.; read-out: Plasma stability t1/2
# Description: Method 3: Rat Plasma Stability
# as §1, with “(A-22,” for “(A-16, A-22, A-25, A-36,”, “rat” for “mouse”, “031-APSC-PMG)” for “029-APSC-PMG)”, “ACN” for “acetonitrile (ACN, Sigma, SA-271004-1L)”, “centrifuged” for “centrifuged (Beckman, B30150)”
# as §2
# [5] = Beagle dog plasma stability (Method 4); assay type: in vitro ADME; conditions: Method 4 (beagle dog plasma), 37° C.; read-out: Plasma stability t1/2
# Description: Method 4: Beagle Dog Plasma Stability
# as §1, with “(A-22,” for “(A-16, A-22, A-25, A-36,”, “beagle dog” for “mouse”, “014-APSC-PMG)” for “029-APSC-PMG)”, “ACN” for “acetonitrile (ACN, Sigma, SA-271004-1L)”, “centrifuged” for “centrifuged (Beckman, B30150)”
# as §2
SMILES,half-life at 100 µM [1],half-life at 300 µM [2],half-life at 300 µM [3],half-life at 300 µM [4],half-life at 300 µM [5]
CCC(C)[C@@H]([C@@H](CC(=O)N1CCC[C@H]1[C@H](OC)[C@@H](C)C(=O)NC(Cc1ccccc1)C(=O)O)OC)N(C)C(=O)[C@@H](NC(=O)[C@H](C(C)C)N(C)C(=O)OCc1ccc(O[C@@H]2O[C@H](CO)[C@H](O)[C@H](O)[C@H]2O)c2cc(CCC(=O)NCCOCCOCCOCCN=[N+]=[N-])sc12)C(C)C (some centres unmarked) [Compound A-15],> 168 h,,,,
CCC(C)[C@@H]([C@@H](CC(=O)N1CCC[C@H]1[C@H](OC)[C@@H](C)C(=O)NC(Cc1ccccc1)C(=O)O)OC)N(C)C(=O)[C@@H](NC(=O)[C@H](C(C)C)N(C)C(=O)OCc1ccc(O[C@@H]2O[C@H](CO)[C@H](O)[C@H](O)[C@H]2O)c2cc(CCC(=O)O)sc12)C(C)C (some centres unmarked) [Compound A-16] (X2-[NMeV]V[Dil(5ξ)][Dolaproine][ξF]-OH),> 168 h,> 168 h,,,
CCC(C)[C@@H]([C@@H](CC(=O)N1CCC[C@H]1[C@H](OC)[C@@H](C)C(=O)NC(Cc1ccccc1)C(=O)O)OC)N(C)C(=O)[C@@H](NC(=O)[C@H](C(C)C)N(C)C(=O)OCc1ccc(O[C@@H]2O[C@H](CO)[C@H](O)[C@H](O)[C@H]2O)c2cc(Cn3cc(COCCOCCOCCOC)nn3)sc12)C(C)C (some centres unmarked) [Compound A-19],> 168 h,,> 168 h,,
C#CCOCCOCCOCCOCC(=O)NCc1cc2c(O[C@@H]3O[C@H](CO)[C@H](O)[C@H](O)[C@H]3O)ccc(COC(=O)N(C)[C@H](C(=O)N[C@H](C(=O)N(C)[C@@H](C(C)CC)[C@@H](CC(=O)N3CCC[C@H]3[C@H](OC)[C@@H](C)C(=O)NC(Cc3ccccc3)C(=O)O)OC)C(C)C)C(C)C)c2s1 (some centres unmarked) [Compound A-21],> 168 h,,,,
CCC(C)[C@@H]([C@@H](CC(=O)N1CCC[C@H]1[C@H](OC)[C@@H](C)C(=O)NC(Cc1ccccc1)C(=O)O)OC)N(C)C(=O)[C@@H](NC(=O)[C@H](C(C)C)N(C)C(=O)OCc1ccc(O[C@@H]2O[C@H](CO)[C@H](O)[C@H](O)[C@H]2O)c2cc(CCCC(=O)O)oc12)C(C)C (some centres unmarked) [Compound A-22] (X1-[NMeV]V[Dil(5ξ)][Dolaproine][ξF]-OH),> 168 h,> 168 h,> 168 h,> 168 h,> 168 h
CCC(C)[C@@H]([C@@H](CC(=O)N1CCC[C@H]1[C@H](OC)[C@@H](C)C(=O)NC(Cc1ccccc1)C(=O)O)OC)N(C)C(=O)[C@@H](NC(=O)[C@H](C(C)C)N(C)C(=O)OCc1ccc(O[C@@H]2O[C@H](CO)[C@H](O)[C@H](O)[C@H]2O)c2cc(CCCC(=O)NCCOCCOCCOCCN=[N+]=[N-])oc12)C(C)C (some centres unmarked) [Compound A-23],> 168 h,,,,
CCC(C)[C@@H]([C@@H](CC(=O)N1CCC[C@H]1[C@H](OC)[C@@H](C)C(=O)NC(Cc1ccccc1)C(=O)O)OC)N(C)C(=O)[C@@H](NC(=O)[C@H](C(C)C)N(C)C(=O)OCc1ccc(O[C@@H]2O[C@H](CO)[C@H](O)[C@H](O)[C@H]2O)c2cc(C(=O)O)oc12)C(C)C (some centres unmarked) [Compound A-24] (X4-[NMeV]V[Dil(5ξ)][Dolaproine][ξF]-OH),> 168 h,,,,
CC[C@H](C)[C@@H]([C@@H](CC(=O)N1CCC[C@H]1[C@H](OC)[C@@H](C)C(=O)N[C@H](C)[C@@H](O)c1ccccc1)OC)N(C)C(=O)[C@@H](NC(=O)[C@H](C(C)C)N(C)C(=O)OCc1ccc(O[C@@H]2O[C@H](CO)[C@H](O)[C@H](O)[C@H]2O)c2cc(CCC(=O)NCCOCCOCCOCCN=[N+]=[N-])oc12)C(C)C [Compound A-25],> 168 h,> 168 h,> 168 h,,
C#CCOCCOCCOCCOCC(=O)NCc1cc2c(O[C@@H]3O[C@H](CO)[C@H](O)[C@H](O)[C@H]3O)ccc(COC(=O)N(C)[C@H](C(=O)N[C@H](C(=O)N(C)[C@@H](C(C)CC)[C@@H](CC(=O)N3CCC[C@H]3[C@H](OC)[C@@H](C)C(=O)NC(Cc3ccccc3)C(=O)O)OC)C(C)C)C(C)C)c2o1 (some centres unmarked) [Compound A-28],> 168 h,,,,
CCC(C)[C@@H]([C@@H](CC(=O)N1CCC[C@H]1[C@H](OC)[C@@H](C)C(=O)NC(Cc1ccccc1)C(=O)O)OC)N(C)C(=O)[C@@H](NC(=O)[C@H](C(C)C)N(C)C(=O)OCc1ccc(O[C@@H]2O[C@H](CO)[C@H](O)[C@H](O)[C@H]2O)c2cc(C(=O)O)[se]c12)C(C)C (some centres unmarked) [Compound A-29] (X3-[NMeV]V[Dil(5ξ)][Dolaproine][ξF]-OH),> 168 h,,,,
CC[C@H](C)[C@@H]([C@@H](CC(=O)N1CCC[C@H]1[C@H](OC)[C@@H](C)C(=O)N[C@H](C)[C@@H](O)c1ccccc1)OC)N(C)C(=O)[C@@H](NC(=O)[C@H](C(C)C)N(C)C(=O)OCc1ccc(O[C@@H]2O[C@H](C(=O)O)[C@@H](O)[C@H](O)[C@H]2O)c2cc(Cn3cc(COCCOCCOCCOC)nn3)[se]c12)C(C)C [Compound A-69],> 168 h,> 168 h,> 168 h,> 168 h,> 168 h
